Where a name gives a salt, the structure may show the parent alone.
Target: T1, AXL (Homo sapiens, UniProt P30530)
T1 construct: purchased Promega
T1 sequence (P30530 26-894): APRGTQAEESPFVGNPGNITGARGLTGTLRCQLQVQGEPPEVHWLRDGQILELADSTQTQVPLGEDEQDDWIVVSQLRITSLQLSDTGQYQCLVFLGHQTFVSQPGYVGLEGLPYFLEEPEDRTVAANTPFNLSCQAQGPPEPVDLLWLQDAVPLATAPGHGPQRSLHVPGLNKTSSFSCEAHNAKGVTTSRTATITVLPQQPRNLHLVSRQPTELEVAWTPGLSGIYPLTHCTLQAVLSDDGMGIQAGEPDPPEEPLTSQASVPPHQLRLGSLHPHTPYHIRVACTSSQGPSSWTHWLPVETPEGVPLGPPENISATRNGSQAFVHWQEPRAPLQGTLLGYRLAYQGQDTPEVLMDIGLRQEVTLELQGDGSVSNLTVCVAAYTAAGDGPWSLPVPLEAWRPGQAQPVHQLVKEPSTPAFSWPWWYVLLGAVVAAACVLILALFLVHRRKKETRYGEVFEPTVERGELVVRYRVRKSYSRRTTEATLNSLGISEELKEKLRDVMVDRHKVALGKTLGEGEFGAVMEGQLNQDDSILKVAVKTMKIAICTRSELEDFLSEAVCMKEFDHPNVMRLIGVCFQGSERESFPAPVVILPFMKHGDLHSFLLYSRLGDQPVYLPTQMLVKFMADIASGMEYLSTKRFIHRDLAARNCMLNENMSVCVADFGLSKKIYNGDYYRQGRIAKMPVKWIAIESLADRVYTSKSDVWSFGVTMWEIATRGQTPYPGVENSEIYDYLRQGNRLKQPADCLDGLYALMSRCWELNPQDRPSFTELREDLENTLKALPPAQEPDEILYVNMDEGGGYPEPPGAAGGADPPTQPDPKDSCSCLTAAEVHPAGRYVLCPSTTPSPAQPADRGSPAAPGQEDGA
Experiment: Assay of AXL inhibitory activity in vitro (Promega AXL Kinase Enzyme System, ADP-Glo)
Format: biochemical
Settings: 50 μmol/L ATP, 30° C., 60 minutes
Description: AXL Kinase Enzyme System (kinase system) was purchased from Promega. Envision multi-label Analyzer (PerkinElmer).
The enzyme, substrate, ATP and inhibitors were diluted using the buffer solution in the kit.
The assay was carried out in duplicate. 1 μl of the inhibitors of each concentration gradient, 2 μl of the AXL enzyme (6 ng), and a 2 μl mixture of the substrate and ATP (50 μmol/L ATP, 0.2 μg/μL Axltide) were added to the microplate. […] After the reaction was completed, 5 μL of ADP-Glo reagent was added to each well. The system was further reacted at 30° C. for 40 minutes. After the reaction was completed, 10 μL of kinase detection reagent was added to each well and reacted at 30° C. for 30 minutes. The chemiluminescence was then read by the PerkinElmer Envision multi-label analyzer with an integration time of 0.5 seconds.
The original data was converted into an inhibition rate, and the IC50 value can be obtained by four-parameter curve fitting.

IC50: 5.76 nM
Structure (SMILES): CCc1nc(C(N)=O)c(Nc2ccc(N3CCC4(CCN(C)CC4)CC3)c(OC)c2)nc1NC1CCOCC1 [Trifluoroacetate salt of compound A, reference compound]

Source: US20230141887A1, “CRYSTAL FORM OF DIAZASPIROPYRAN COMPOUND” (MEDSHINE DISCOVERY INC., priority 2020, published 2023)
